Test results reported in ChEMBL document CHEMBL1201862, “PubChem BioAssay data set” (2004).
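Protocol summary: plate cells (96-well), add compound at 5 concentrations, incubate 48 h, interpolate endpoints linearly. Abbreviation: GI50, concentration required for 50% inhibition of growth.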 Activity calls are given as the source filed them. Cut-off read from the data, not from the text of the source: active = GI50 up to about 1.1 µM and inactive = higher.

Experiments:
Experiment in all cases: DTP human tumour cell line panel, 48 h
M14 = test system: M14
UACC-62 = test system: UACC-62
HL-60 = test system: HL-60
SNB-75 = test system: SNB-75
IGROV-1 = test system: IGROV-1
OVCAR-3 = test system: OVCAR-3
SK-MEL-28 = test system: SK-MEL-28
NCI-H226 = test system: NCI-H226
RPMI-8226 = test system: RPMI-8226
SF-268 = test system: SF-268
Malme-3M = test system: Malme-3M
HCC 2998 = test system: HCC 2998
OVCAR-8 = test system: OVCAR-8
RXF 393 = test system: RXF 393
HOP-92 = test system: HOP-92
MCF7 = test system: MCF7
A498 = test system: A498
ACHN = test system: ACHN
HT-29 = test system: HT-29
SN12C = test system: SN12C
CAKI-1 = test system: CAKI-1
SW-620 = test system: SW-620
OVCAR-5 = test system: OVCAR-5
Hs-578T = test system: Hs-578T
KM12 = test system: KM12
NCI/ADR-RES = test system: NCI/ADR-RES
LOX IMVI = test system: LOX IMVI
U-251 = test system: U-251
SF-295 = test system: SF-295
UO-31 = test system: UO-31
DU-145 = test system: DU-145
SR = test system: SR
NCI-H23 = test system: NCI-H23
MDA-MB-435 = test system: MDA-MB-435
SK-OV-3 = test system: SK-OV-3
MOLT-4 = test system: MOLT-4
SF-539 = test system: SF-539
SK-MEL-5 = test system: SK-MEL-5
COLO 205 = test system: COLO 205
BT-549 = test system: BT-549
OVCAR-4 = test system: OVCAR-4
MDA-MB-231 = test system: MDA-MB-231
HOP-62 = test system: HOP-62
UACC-257 = test system: UACC-257
PC-3 = test system: PC-3
HCT-116 = test system: HCT-116
MDA-N = test system: MDA-N
SNB-19 = test system: SNB-19
786-0 = test system: 786-0
SK-MEL-2 = test system: SK-MEL-2
HCT-15 = test system: HCT-15
NCI-H460 = test system: NCI-H460
EKVX = test system: EKVX
T47D = test system: T47D
K562 = test system: K562
A549 = test system: A549
NCI-H522 = test system: NCI-H522
CCRF-CEM = test system: CCRF-CEM
TK-10 = test system: TK-10

Compound: CC(C)NC(=O)CN1CCN(C2=CC(=O)c3c(O)ccc(O)c3C2=O)CC1
- GI50 (M14): 9.33 µM (inactive)
- GI50 (UACC-62): 5.18 µM (inactive)
- GI50 (HL-60): 2.59 µM (inactive)
- GI50 (SNB-75): 18.2 µM (inactive)
- GI50 (IGROV-1): 14.8 µM (inactive)
- GI50 (OVCAR-3): 2.58 µM (inactive)
- GI50 (SK-MEL-28): 17.1 µM (inactive)
- GI50 (NCI-H226): 31.4 µM (inactive)
- GI50 (RPMI-8226): 24.9 µM (inactive)
- GI50 (SF-268): 24.3 µM (inactive)
- GI50 (Malme-3M): 2.22 µM (inactive)
- GI50 (HCC 2998): 16.7 µM (inactive)
- GI50 (OVCAR-8): 9.04 µM (inactive)
- GI50 (RXF 393): 17.2 µM (inactive)
- GI50 (HOP-92): 21.9 µM (inactive)
- GI50 (MCF7): 2.71 µM (inactive)
- GI50 (A498): 24.2 µM (inactive)
- GI50 (ACHN): 21.2 µM (inactive)
- GI50 (HT-29): 3.62 µM (inactive)
- GI50 (SN12C): 14.5 µM (inactive)
- GI50 (CAKI-1): 26.2 µM (inactive)
- GI50 (SW-620): 4.25 µM (inactive)
- GI50 (OVCAR-5): 18.7 µM (inactive)
- GI50 (Hs-578T): 25.9 µM (inactive)
- GI50 (KM12): 16.6 µM (inactive)
- GI50 (NCI/ADR-RES): 3.9 µM (inactive)
- GI50 (LOX IMVI): 6.1 µM (inactive)
- GI50 (U-251): 19.9 µM (inactive)
- GI50 (SF-295): 15.6 µM (inactive)
- GI50 (UO-31): 18.3 µM (inactive)
- GI50 (DU-145): 16.1 µM (inactive)
- GI50 (SR): 1.57 µM (inactive)
- GI50 (NCI-H23): 9.4 µM (inactive)
- GI50 (MDA-MB-435): 1.93 µM (inactive)
- GI50 (SK-OV-3): 26.1 µM (inactive)
- GI50 (MOLT-4): 17 µM (inactive)
- GI50 (SF-539): 16.7 µM (inactive)
- GI50 (SK-MEL-5): 2.58 µM (inactive)
- GI50 (COLO 205): 3 µM (inactive)
- GI50 (BT-549): 17.7 µM (inactive)
- GI50 (OVCAR-4): 7.45 µM (inactive)
- GI50 (MDA-MB-231): 26.3 µM (inactive)
- GI50 (HOP-62): 18.2 µM (inactive)
- GI50 (UACC-257): 7.18 µM (inactive)
- GI50 (PC-3): 17.5 µM (inactive)
- GI50 (HCT-116): 2.96 µM (inactive)
- GI50 (MDA-N): 2.79 µM (inactive)
- GI50 (SNB-19): 18.7 µM (inactive)
- GI50 (786-0): 16.4 µM (inactive)
- GI50 (SK-MEL-2): 16.6 µM (inactive)
- GI50 (HCT-15): 8.75 µM
- GI50 (NCI-H460): 13 µM (inactive)
- GI50 (EKVX): 19.3 µM (inactive)
- GI50 (T47D): 8.69 µM (inactive)
- GI50 (K562): 20.6 µM (inactive)
- GI50 (A549): 16.4 µM (inactive)
- GI50 (NCI-H522): 18.2 µM (inactive)
- GI50 (CCRF-CEM): 8.65 µM (inactive)
- GI50 (TK-10): 17.1 µM (inactive)

Compound: N=C(N)SCc1ccc2c(c1)Sc1ccccc1O2
- GI50 (M14): 2.16 µM (inactive)
- GI50 (UACC-62): 4.62 µM (inactive)
- GI50 (HL-60): 4.57 µM (inactive)
- GI50 (SNB-75): 5.65 µM (inactive)
- GI50 (IGROV-1): 3.34 µM (inactive)
- GI50 (OVCAR-3): 4.69 µM (inactive)
- GI50 (SK-MEL-28): 13.6 µM (inactive)
- GI50 (NCI-H226): 11.2 µM (inactive)
- GI50 (RPMI-8226): 8.05 µM (inactive)
- GI50 (SF-268): 13.1 µM (inactive)
- GI50 (Malme-3M): 11.1 µM (inactive)
- GI50 (HCC 2998): 2.35 µM (inactive)
- GI50 (OVCAR-8): 10.6 µM (inactive)
- GI50 (RXF 393): 3.61 µM (inactive)
- GI50 (HOP-92): 6.31 µM (inactive)
- GI50 (MCF7): 4.53 µM (inactive)
- GI50 (A498): 15.6 µM (inactive)
- GI50 (ACHN): 4.47 µM (inactive)
- GI50 (HT-29): 2.9 µM (inactive)
- GI50 (SN12C): 8.95 µM (inactive)
- GI50 (CAKI-1): 6.46 µM (inactive)
- GI50 (SW-620): 5.85 µM (inactive)
- GI50 (OVCAR-5): 11.6 µM (inactive)
- GI50 (Hs-578T): 4.56 µM (inactive)
- GI50 (KM12): 5.32 µM (inactive)
- GI50 (NCI/ADR-RES): 6.65 µM (inactive)
- GI50 (LOX IMVI): 6 µM (inactive)
- GI50 (U-251): 18.4 µM (inactive)
- GI50 (SF-295): 10.5 µM (inactive)
- GI50 (UO-31): 3.37 µM (inactive)
- GI50 (DU-145): 8.69 µM (inactive)
- GI50 (SR): 5.78 µM (inactive)
- GI50 (NCI-H23): 6.5 µM (inactive)
- GI50 (MDA-MB-435): 3.78 µM (inactive)
- GI50 (SK-OV-3): 12.9 µM (inactive)
- GI50 (MOLT-4): 7.71 µM (inactive)
- GI50 (SF-539): 2.07 µM (inactive)
- GI50 (SK-MEL-5): 1.57 µM (inactive)
- GI50 (COLO 205): 2.36 µM (inactive)
- GI50 (BT-549): 3.62 µM (inactive)
- GI50 (OVCAR-4): 6.87 µM (inactive)
- GI50 (MDA-MB-231): 10.3 µM (inactive)
- GI50 (HOP-62): 14.1 µM (inactive)
- GI50 (UACC-257): 5.82 µM (inactive)
- GI50 (PC-3): 4.74 µM (inactive)
- GI50 (HCT-116): 5.86 µM (inactive)
- GI50 (MDA-N): 3.93 µM (inactive)
- GI50 (SNB-19): 11.4 µM (inactive)
- GI50 (786-0): 4.76 µM (inactive)
- GI50 (SK-MEL-2): 5.12 µM (inactive)
- GI50 (HCT-15): 3.33 µM
- GI50 (NCI-H460): 6.79 µM (inactive)
- GI50 (EKVX): 11.6 µM (inactive)
- GI50 (T47D): 8.07 µM (inactive)
- GI50 (K562): 6.03 µM (inactive)
- GI50 (A549): 6.73 µM (inactive)
- GI50 (NCI-H522): 1.44 µM (inactive)
- GI50 (CCRF-CEM): 6.78 µM (inactive)
- GI50 (TK-10): 5.11 µM (inactive)

Compound: CSc1c(C#N)c(O)n(-c2ccc(C)cc2)c(=O)c1C#N
- GI50 (M14): > 100 µM (inactive)
- GI50 (UACC-62): > 100 µM (inactive)
- GI50 (HL-60): > 100 µM (inactive)
- GI50 (SNB-75): > 100 µM (inactive)
- GI50 (IGROV-1): > 100 µM (inactive)
- GI50 (OVCAR-3): > 100 µM (inactive)
- GI50 (SK-MEL-28): > 100 µM (inactive)
- GI50 (NCI-H226): > 100 µM (inactive)
- GI50 (RPMI-8226): > 100 µM (inactive)
- GI50 (SF-268): > 100 µM (inactive)
- GI50 (Malme-3M): > 100 µM (inactive)
- GI50 (HCC 2998): > 100 µM (inactive)
- GI50 (OVCAR-8): > 100 µM (inactive)
- GI50 (RXF 393): > 100 µM (inactive)
- GI50 (HOP-92): > 100 µM (inactive)
- GI50 (MCF7): > 100 µM (inactive)
- GI50 (A498): > 100 µM (inactive)
- GI50 (HT-29): > 100 µM (inactive)
- GI50 (SN12C): > 100 µM (inactive)
- GI50 (CAKI-1): > 100 µM (inactive)
- GI50 (SW-620): > 100 µM (inactive)
- GI50 (OVCAR-5): > 100 µM (inactive)
- GI50 (Hs-578T): > 100 µM (inactive)
- GI50 (KM12): > 100 µM (inactive)
- GI50 (NCI/ADR-RES): > 100 µM (inactive)
- GI50 (LOX IMVI): > 100 µM (inactive)
- GI50 (U-251): > 100 µM (inactive)
- GI50 (UO-31): > 100 µM (inactive)
- GI50 (DU-145): > 100 µM (inactive)
- GI50 (SR): > 100 µM (inactive)
- GI50 (NCI-H23): > 100 µM (inactive)
- GI50 (MDA-MB-435): > 100 µM (inactive)
- GI50 (SK-OV-3): > 100 µM (inactive)
- GI50 (MOLT-4): > 100 µM (inactive)
- GI50 (SF-539): > 100 µM (inactive)
- GI50 (SK-MEL-5): > 100 µM (inactive)
- GI50 (COLO 205): > 100 µM (inactive)
- GI50 (BT-549): > 100 µM (inactive)
- GI50 (OVCAR-4): > 100 µM (inactive)
- GI50 (MDA-MB-231): > 100 µM (inactive)
- GI50 (UACC-257): > 100 µM (inactive)
- GI50 (PC-3): > 100 µM (inactive)
- GI50 (HCT-116): > 100 µM (inactive)
- GI50 (MDA-N): > 100 µM (inactive)
- GI50 (SNB-19): > 100 µM (inactive)
- GI50 (786-0): > 100 µM (inactive)
- GI50 (SK-MEL-2): > 100 µM (inactive)
- GI50 (HCT-15): > 100 µM
- GI50 (NCI-H460): > 100 µM (inactive)
- GI50 (EKVX): > 100 µM (inactive)
- GI50 (T47D): > 100 µM (inactive)
- GI50 (K562): > 100 µM (inactive)
- GI50 (A549): > 100 µM (inactive)
- GI50 (NCI-H522): > 100 µM (inactive)
- GI50 (TK-10): > 100 µM (inactive)
